Results taken from PubChem BioAssay AID1963974 (Molecular Pharmacology Branch, DTP, NCI, 2024).

Test system: 648629-189-R-J1-PDC spheroids with HUVEC/MSC, viability
Test: Anticancer human tumor 648629-189-R-J1-PDC patient-derived bladder carcinoma cell line growth inhibition [PI3K]
Settings: for IC50: curve of first compound; for viability, T/C: stronger effect = lower value
Procedure, shortened: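 Combination activity was assessed by viability in multicellular tumor spheroids carrying HUVEC and MSC components. Agents were tested with PI3K inhibitors from a Cmax-based top dose (or 10 microM) downward in half-log increments.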

[1] = second compound 0.0316 µM, first compound 0.0316 µM
[2] = second compound 0.0316 µM, first compound 0.1 µM
[3] = second compound 0.0316 µM, first compound 0.316 µM
[4] = second compound 0.0316 µM, first compound 1 µM
[5] = second compound 0.0316 µM, first compound 3.16 µM
[6] = second compound 0.0316 µM, first compound 10 µM
[7] = second compound 0.1 µM, first compound 0.0316 µM
[8] = second compound 0.1 µM, first compound 0.1 µM
[9] = second compound 0.1 µM, first compound 0.316 µM
[10] = second compound 0.1 µM, first compound 1 µM
[11] = second compound 0.1 µM, first compound 3.16 µM
[12] = second compound 0.1 µM, first compound 10 µM
[13] = second compound 0.316 µM, first compound 0.0316 µM
[14] = second compound 0.316 µM, first compound 0.1 µM
[15] = second compound 0.316 µM, first compound 0.316 µM
[16] = second compound 0.316 µM, first compound 1 µM
[17] = second compound 0.316 µM, first compound 3.16 µM
[18] = second compound 0.316 µM, first compound 10 µM
[19] = second compound 1 µM, first compound 0.0316 µM
[20] = second compound 1 µM, first compound 0.1 µM
[21] = second compound 1 µM, first compound 0.316 µM
[22] = second compound 1 µM, first compound 1 µM
[23] = second compound 1 µM, first compound 3.16 µM
[24] = second compound 1 µM, first compound 10 µM
[25] = second compound 3.16 µM, first compound 0.0316 µM
[26] = second compound 3.16 µM, first compound 0.1 µM
[27] = second compound 3.16 µM, first compound 0.316 µM
[28] = second compound 3.16 µM, first compound 1 µM
[29] = second compound 3.16 µM, first compound 3.16 µM
[30] = second compound 3.16 µM, first compound 10 µM
[31] = second compound 10 µM, first compound 0.0316 µM
[32] = second compound 10 µM, first compound 0.1 µM
[33] = second compound 10 µM, first compound 0.316 µM
[34] = second compound 10 µM, first compound 1 µM
[35] = second compound 10 µM, first compound 3.16 µM
[36] = second compound 10 µM, first compound 10 µM
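Further: spheroids exposed to agents for seven days before reading.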
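Wherever viability, T/C is given: percent of vehicle control luminescence where 100% = DMSO treated spheroids.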

Q: What does the source list for `CCCS(=O)(=O)Nc1ccc(F)c(C(=O)c2c[nH]c3ncc(-c4ccc(Cl)cc4)cc23)c1F` + CC(Nc1ncnc2nc[nH]c12)c1cc2cccc(Cl)c2c(=O)n1-c1ccccc1?
A: IC50 (second compound 0.0316 µM): 5230 nM; IC50 (second compound 0.1 µM): 5590 nM; IC50 (second compound 0.316 µM): 5270 nM; IC50 (second compound 1 µM): 5260 nM; IC50 (second compound 3.16 µM): 4280 nM; IC50 (second compound 10 µM): 3880 nM; viability, T/C [1]: 99.8%; viability, T/C [2]: 95.1%; viability, T/C [3]: 120%; viability, T/C [4]: 98.3%; viability, T/C [5]: 88.2%; viability, T/C [6]: 0.98%; viability, T/C [7]: 103%; viability, T/C [8]: 96.7%; viability, T/C [9]: 91.8%; viability, T/C [10]: 98.9%; viability, T/C [11]: 100%; viability, T/C [12]: 0.84%; viability, T/C [13]: 109%; viability, T/C [14]: 108%; viability, T/C [15]: 99.2%; viability, T/C [16]: 109%; viability, T/C [17]: 89.4%; viability, T/C [18]: 0.43%; viability, T/C [19]: 101%; viability, T/C [20]: 88.7%; viability, T/C [21]: 96.2%; viability, T/C [22]: 99.2%; viability, T/C [23]: 89.1%; viability, T/C [24]: 0.46%; viability, T/C [25]: 91.1%; viability, T/C [26]: 103%; viability, T/C [27]: 92.2%; viability, T/C [28]: 89.5%; viability, T/C [29]: 67.6%; viability, T/C [30]: 0.83%; viability, T/C [31]: 86.9%; viability, T/C [32]: 77.6%; viability, T/C [33]: 81.9%; viability, T/C [34]: 80.2%; viability, T/C [35]: 60.6%; viability, T/C [36]: 1.35%

Q: `CC(C)NCC(C(=O)N1CCN(c2ncnc3c2C(C)CC3O)CC1)c1ccc(Cl)cc1` (stereo unspecified) + CC(Nc1ncnc2nc[nH]c12)c1cc2cccc(Cl)c2c(=O)n1-c1ccccc1 was tested. Which IC50 (second compound 0.0316 µM) did it give?
A: Its IC50 is 1050 nM.

Q: What about the IC50 (second compound 0.1 µM) of the same compound?
A: The IC50 was 1520 nM.

Q: What about the IC50 (second compound 0.316 µM) of the same compound?
A: The IC50 was 1140 nM.

Q: And the IC50 (second compound 1 µM)?
A: The IC50 was 1230 nM.

Q: What about the IC50 (second compound 3.16 µM) of the same compound?
A: The IC50 was 904 nM.

Q: And the IC50 (second compound 10 µM)?
A: Its IC50 is 1010 nM.

Q: And the viability, T/C [1]?
A: Its viability, T/C is 99.8%.

Q: And the viability, T/C [2]?
A: The viability, T/C was 93.6%.

Q: What about the viability, T/C [3] of the same compound?
A: Its viability, T/C is 82%.

Q: What about the viability, T/C [4] of the same compound?
A: Its viability, T/C is 49.4%.

Q: And the viability, T/C [5]?
A: The viability, T/C was 28.9%.

Q: What about the viability, T/C [6] of the same compound?
A: Its viability, T/C is 17.3%.

Q: What about the viability, T/C [7] of the same compound?
A: The viability, T/C was 97.3%.

Q: What about the viability, T/C [8] of the same compound?
A: Its viability, T/C is 90.3%.

Q: And the viability, T/C [9]?
A: The viability, T/C was 79.7%.

Q: What about the viability, T/C [10] of the same compound?
A: Its viability, T/C is 61.3%.

Q: And the viability, T/C [11]?
A: Its viability, T/C is 32.2%.

Q: What about the viability, T/C [12] of the same compound?
A: Its viability, T/C is 19.3%.

Q: And the viability, T/C [13]?
A: The viability, T/C was 97.4%.

Q: What about the viability, T/C [14] of the same compound?
A: Its viability, T/C is 91.2%.

Q: And the viability, T/C [15]?
A: The viability, T/C was 76.3%.

Q: What about the viability, T/C [16] of the same compound?
A: Its viability, T/C is 53.4%.

Q: And the viability, T/C [17]?
A: Its viability, T/C is 29.2%.

Q: And the viability, T/C [18]?
A: Its viability, T/C is 17.7%.

Q: What about the viability, T/C [19] of the same compound?
A: The viability, T/C was 93.6%.

Q: And the viability, T/C [20]?
A: The viability, T/C was 94.5%.

Q: What about the viability, T/C [21] of the same compound?
A: Its viability, T/C is 80.7%.

Q: And the viability, T/C [22]?
A: The viability, T/C was 54.2%.

Q: And the viability, T/C [23]?
A: The viability, T/C was 29.4%.

Q: What about the viability, T/C [24] of the same compound?
A: Its viability, T/C is 17.5%.

Q: And the viability, T/C [25]?
A: The viability, T/C was 101%.

Q: What about the viability, T/C [26] of the same compound?
A: The viability, T/C was 91.3%.

Q: And the viability, T/C [27]?
A: Its viability, T/C is 72.6%.

Q: And the viability, T/C [28]?
A: The viability, T/C was 48.6%.

Q: What about the viability, T/C [29] of the same compound?
A: Its viability, T/C is 25.9%.

Q: What about the viability, T/C [30] of the same compound?
A: Its viability, T/C is 15.5%.

Q: And the viability, T/C [31]?
A: The viability, T/C was 83.8%.

Q: What about the viability, T/C [32] of the same compound?
A: The viability, T/C was 72.2%.

Q: What about the viability, T/C [33] of the same compound?
A: The viability, T/C was 79.4%.

Q: What about the viability, T/C [34] of the same compound?
A: The viability, T/C was 48.4%.

Q: And the viability, T/C [35]?
A: Its viability, T/C is 28.3%.

Q: And the viability, T/C [36]?
A: The viability, T/C was 18.2%.

Q: Which results are given for `CCN1CCN(Cc2ccc(Nc3ncc(F)c(-c4cc(F)c5nc(C)n(C(C)C)c5c4)n3)nc2)CC1` + CC(Nc1ccc2c(c1)OCCn1cc(N3C(=O)OCC3C(F)F)nc1-2)C(N)=O?
A: IC50 (second compound 0.00316 µM): > 1000 nM; IC50 (second compound 0.01 µM): > 1000 nM; IC50 (second compound 0.0316 µM): > 1000 nM; IC50 (second compound 0.1 µM): > 1000 nM; IC50 (second compound 0.316 µM): > 1000 nM; IC50 (second compound 1 µM): > 1000 nM; viability, T/C (second compound 0.00316 µM, first compound 0.00316 µM): 105%; viability, T/C (second compound 0.00316 µM, first compound 0.01 µM): 98.8%; viability, T/C (second compound 0.00316 µM, first compound 0.0316 µM): 105%; viability, T/C (second compound 0.00316 µM, first compound 0.1 µM): 113%; viability, T/C (second compound 0.00316 µM, first compound 0.316 µM): 118%; viability, T/C (second compound 0.00316 µM, first compound 1 µM): 119%; viability, T/C (second compound 0.01 µM, first compound 0.00316 µM): 95.5%; viability, T/C (second compound 0.01 µM, first compound 0.01 µM): 102%; viability, T/C (second compound 0.01 µM, first compound 0.0316 µM): 110%; viability, T/C (second compound 0.01 µM, first compound 0.1 µM): 110%; viability, T/C (second compound 0.01 µM, first compound 0.316 µM): 113%; viability, T/C (second compound 0.01 µM, first compound 1 µM): 107%; viability, T/C (second compound 0.0316 µM, first compound 0.00316 µM): 105%; viability, T/C (second compound 0.0316 µM, first compound 0.01 µM): 99.2%; viability, T/C [1]: 112%; viability, T/C [2]: 95.8%; viability, T/C [3]: 121%; viability, T/C [4]: 124%; viability, T/C (second compound 0.1 µM, first compound 0.00316 µM): 96.4%; viability, T/C (second compound 0.1 µM, first compound 0.01 µM): 104%; viability, T/C [7]: 102%; viability, T/C [8]: 105%; viability, T/C [9]: 109%; viability, T/C [10]: 103%; viability, T/C (second compound 0.316 µM, first compound 0.00316 µM): 85.5%; viability, T/C (second compound 0.316 µM, first compound 0.01 µM): 82.6%; viability, T/C [13]: 99.9%; viability, T/C [14]: 98.6%; viability, T/C [15]: 90.7%; viability, T/C [16]: 96.9%; viability, T/C (second compound 1 µM, first compound 0.00316 µM): 70.8%; viability, T/C (second compound 1 µM, first compound 0.01 µM): 72.4%; viability, T/C [19]: 64.3%; viability, T/C [20]: 73.1%; viability, T/C [21]: 87.8%; viability, T/C [22]: 77.8%
